Source: US20250161399A1, “TARGETING SLC46A2-MEDIATED MUROPEPTIDE TRANSPORT TO TREAT PSORIASIS” (University of Massachusetts, priority 2021, published 2025)
Entries after “also recorded” stand apart in the source; their conditions may differ.

How the values were obtained:
[1] = test system: primary mouse keratinocytes; test: cytokine ELISAs from primary keratinocyte culture media; assay type: cell-based
Procedure: (§1) Adult (6-8 weeks) mouse keratinocytes were isolated from male or female animals using protocols described previously (57). In brief, tail skin was incubated in 1 mg/ml Dispase II (Roche) overnight at 4° C. The epidermis was physically removed from the dermis with tweezers following Dispase II treatment, subsequently digested with TrypLE (Thermo) for 20 min at room temperature, and keratinocytes were detached by vigorously shaking in EpiLife culture medium and filtered with a 70 μm strainer (Fisher scientific). Isolated cells were seeded at a density of 10^5 cells/cm^2 cultured with EpiLife (Gibco) in 12-well plates precoated with coating matrix (Gibco) and used between 3 and 5 days after isolation.
For cytokine ELISAs, primary keratinocytes were either mock-treated or treated with 8 μM TCT or 30 μM iE-DAP for 24 h Culture medium was harvested and centrifuged at 500 g for 15 mins and analyzed using ELISA kits detecting CXCL1 (KC), IL-6, TNF-α, IL-1α and IL-1β (R&D systems) following the manufacturer's protocols. In brief, 96-well ELISA plates were coated with capture antibody overnight at room temperature. The next day, the plate was washed three times with wash buffer and incubated with harvested media (100 μl) for 2 h followed by three washes and then probed with biotin-labelled detection antibody for 2 h. After three washes with wash buffer, plates were incubated with HRP-streptavidin for 20 min at room temperature (RT), developed with TMB (3,3′,5,5″-tetramethylbenzidine) substrate for 20 min at RT, and then stopped with IN sulfuric acid. Plate was analyzed at 450 nm with wavelength correction at 540 nm.

Slc46a2 = target: T1, Slc46a2 (Mus musculus, UniProt Q8CA03); test: click-muropeptide uptake into keratinocytes (CalFluor 488 Azide, confocal imaging and lysate fluorescence); assay type: cell-based; details: WT or Nod1−/− keratinocytes, 30 μM click-iE-DAP; MTX 250 μM or unlabeled iE-DAP 30 μM
T1 construct: primary mouse keratinocytes, which express Slc46a2 and Nod1; endogenous in cells; host or cells: primary mouse epidermal keratinocytes (WT or Nod1-/-; Slc46a2-/- cells served as the negative control)
T1 sequence (Q8CA03 1-479): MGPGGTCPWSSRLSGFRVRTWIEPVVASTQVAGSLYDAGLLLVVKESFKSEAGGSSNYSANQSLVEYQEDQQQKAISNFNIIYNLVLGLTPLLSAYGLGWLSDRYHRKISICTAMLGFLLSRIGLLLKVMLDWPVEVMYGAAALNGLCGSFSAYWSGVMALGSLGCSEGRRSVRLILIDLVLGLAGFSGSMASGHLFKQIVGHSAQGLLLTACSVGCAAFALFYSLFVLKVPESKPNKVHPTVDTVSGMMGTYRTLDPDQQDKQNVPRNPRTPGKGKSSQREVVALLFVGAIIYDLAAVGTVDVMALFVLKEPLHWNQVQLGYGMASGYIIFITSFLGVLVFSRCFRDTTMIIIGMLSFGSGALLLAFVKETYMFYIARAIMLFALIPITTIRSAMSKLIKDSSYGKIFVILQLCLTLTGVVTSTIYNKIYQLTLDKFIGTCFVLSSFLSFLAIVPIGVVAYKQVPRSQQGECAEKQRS
Procedure: For visualization, mouse keratinocytes were challenged with click-iE-DAP (30 μM) or click-MDP (20 μM) 37° C. for 30-60 min, cells washed 2× with 1×PBS to remove access of click-muropeptides and fixed with 4% paraformaldehyde in PBS at RT for 10 min. Cells were permeabilized with 1% Triton-X in PBS for 10 min at RT and blocked with 1% BSA in PBS. These permeabilized cells were then incubated in click-reaction conditions (250 μM CuSO4, 35 μM BTAA, 60 μM sodium ascorbate) with 2.5 μM CalFluor 488 Azide at RT for 30 mins. Cells were then washed and mounted on slides, with DAPI containing mounting media. Slides were imaged with a Leica SP8 confocal microscope.

[2] = test system: mouse skin (NOD1/NOD2 response); test: neutrophil recruitment to pinnae after intradermal injection; assay type: in vivo; details: TCT 8 μM, iE-DAP 30 μM
Procedure: […] After 3 h, both ears were individually harvested, and stored in ice cold PBS on ice until further processing for flow cytometry staining.
Pinnae were cut into small pieces and incubated for 30 min at 37° C. in a solution of 1 mg/ml collagenase (Sigma) in DMEM media containing 10% FBS. Ice-cold FACS buffer (2% FBS in PBS) was added to skin samples to stop the reaction. Then samples were placed on 70 μm cell strainers and ground using a cell strainer pestle to create a single cell suspension. Cells were spun at 180 g for 5 min at 4° C. and resuspended in FACS buffer.
(§2) 1×10^6 cells were stained with F4/80-PE/Cy7 (1:200), CD45-alexaflour700 (1:200) and Gr1-PE (1:200) for 30 min on ice in the dark. Samples were washed three times with FACS buffer and analyzed with a Cytek Aurora cytometer. Results were analyzed with FlowJo software (Tree Star, USA).

[3] = test system: mouse peritoneum (NOD1/NOD2 response); test: neutrophil recruitment to the peritoneum after intraperitoneal injection; assay type: in vivo; details: 3 h, iE-DAP 30 μM, MDP 10 μM
Procedure: For peritoneal cell extraction, animals were euthanized and cells from peritoneal cavity were isolated by peritoneal lavage (58). Harvested cell suspensions were centrifuged at 300 g for 5 min at 4° C. and resuspended in FACS buffer.
as §2

tape stripped mouse skin = test: neutrophil recruitment after topical application to tape stripped skin; assay type: in vivo; details: topical 10 μl of 30 μM iE-DAP on tape stripped skin, 3 h
Procedure: The epidermal barrier of the dorsal ear pinnae was disrupted by mild tape stripping. A small piece of surgical tape (Transpore surgical tape) was manually applied to the skin and removed, repeated 5 consecutive rounds using a fresh piece of tape for each round. Then, 10^7 CFU C. accolens or 30 μM iE-DAP in 50% glycerol was applied to one pinna and 50% glycerol was applied to contralateral pinna. After 3 h mice were euthanized, and pinnae were processed as described above.

[4] = test system: primary human foreskin keratinocytes; test: Propidium Iodide (PI) uptake assay in primary human foreskin keratinocytes; assay type: cell-based; details: indicated iE-DAP doses, standard tissue culture
[5] = test system: HSE dermal fibroblasts (CXCL8); test: CXCL8 induction in Human Skin Equivalents (HSE) skin organoids; assay type: cell-based; details: HSE epidermis treated with 30 μM iE-DAP for 24 h
[6] = test system: primary dermal fibroblasts; test: CXCL1 (KC) ELISA from primary dermal fibroblasts; assay type: cell-based, mouse; details: iE-DAP 30 μM or IL-1α 10 ng/ml, 24 hrs
Procedure: Mouse dermal fibroblasts were isolated as described herein. In brief, mouse pinnae were incubated on a table shaker (200 rpm) in a collagenase D-pronase solution [2.5 mg/ml collagenase-D (Sigma), 20 mg/ml pronase (Sigma) diluted in 1M Tris, pH 8.0 and containing 1 μM EDTA (Sigma)] for 90 min at 37° C. Fibroblasts were then isolated by pressing digested skin through a 70 μm cell strainer, and cells were collected and cultured in RPMI 1640 medium with 10% FBS, 50 μM 2-mercaptoethanol, 100 μM asparagine, 2 mM glutamine, 1% penicillin-streptomycin for 2-4 passages before stimulating with immune elicitors, and/or harvesting media or cells.
For cytokine ELISAs from dermal fibroblast, cells were challenged with IL-1α (10 ng/ml) or 30 μM iE-DAP for 24 h, and media was collected and processed for ELISA as described above.

[7] = test system: primary mouse keratinocytes; test: keratinocyte cell permeabilization assay (Sytox dye uptake, live cell imaging); assay type: cell-based; details: WT keratinocytes, 30 μM iE-DAP, 24 h; MTX increasing concentration, zVAD-fmk 10 μM, DMF 50 μM
Procedure: as §1
For cell permeabilization assays, 1×10^5 keratinocytes/well were seeded in a 96-well plate (Denville Scientific Inc.). After reaching 80% confluency, 30 μM iE-DAP was added to culture media with 1 nM Sytox red dye (Thermo) and 0.2 nM hoechst stain (Thermo). Plates were then cultured in a Cytation5 (BioTek) live imaging device and each well was imaged every 30 min for 24 hours. For analysis, Gen5 software were used to count the total number of Hoechst-stained nuclei and the total number of permeabilized cells were quantified as the number of Sytox positive nuclei. The Percentage of Sytox^+ cells was then calculated and plotted.

[8] = test system: primary mouse keratinocytes; test: lipid nanoparticle (NP) mediated iE-DAP/dye delivery into keratinocytes; assay type: cell-based; details: keratinocytes pretreated with 250 μM MTX, iE-DAP delivered by dye-loaded NP
Procedure: Briefly, a matrix of DOPC/DSPC/DOPG/cholesterol/DSPE-mPEG at 33.5/33.5/20/10/3 mol % was prepared in chloroform and dry lipid/cholesterol films were allowed to form. Films were rehydrated with iE-DAP (Invivogen) prepared in PBS at 1.2 mg/mL and these samples were vortexed for 30 sec every 10 min for 1 hr at 56° C. to complete this process. Following rehydration, samples were ultrasonicated in alternating 20 sec pulse/10 sec off cycles for 5 min at an amplitude of 20% to form iEDAP-encapsulated lipid-based NPs. Samples were dialyzed for 1 hr following ultrasonication. Dynamic light scattering (DLS) and zeta potential measurements using a Malvern Zetasizer were used to characterize NP size and surface charge, respectively. […] Quant-IT assay (Thermo Fisher Scientific) measurements were used to measure average iE-DAP encapsulation at 998.1 μg/mL and an average encapsulation efficiency of 57.1%. To visualize iE-DAP-encapsulated NPs, 0.1 mol % of the fluorescent lipid tracer dye 3,3′-dioctadecyloxacarbocyanine perchlorate (DiO) were added to the lipid/cholesterol films. Mouse keratinocytes were challenged iE-DAP loaded NPs, or control empty NPs, at 37° C. at 10 μg/ml final concentration (˜30 μM iE-DAP), and then monitored for Sytox uptake assay for 24 h, as described above. […]

[9] = test system: psoriasis-like inflammation on mouse pinnae; test: IMQ model of psoriasis-like dermatitis (ear thickness, H&E histology); assay type: in vivo; details: IMQ daily with topical 50 μl of 250 μM MTX
Procedure: Pinnae were harvested 3 h after DAP-muropeptide administration or 7 d after topical application of IMQ and fixed in PBS containing 10% formalin. Paraffin-embedded sections were cut at […], stained with H&E, and imaged by light microscopy.
The induction of psoriasis-like inflammation on mouse pinnae was done as previously described (60). In brief, mice were treated daily for up to 6 d with 5 mg 5% IMQ cream topically applied on one pinna, while the other pinnae were treated with a similar amount of Vaseline, as vehicle control. Ear thickness was measured daily using a digital caliper. The change in ear thickness over time was reported as the difference related to the first day of topical application. For the bacterial assisted psoriasis model, 5 mg 5% IMQ cream was topically applied on one pinna, while the contralateral pinna was treated with a similar amount of Vaseline for 3 days, and then 10^7 CFU of C. accolens, in 50% glycerol, was topically applied daily to both pinnae. Ear thickness was measured daily using a digital caliper. C. accolens, originally from ATCC, was provided by J. Kang and grown as described (61).

Compound	IL-1α release by keratinocytes ([1]; 30 μM iE DAP, 24 h)	induction of TNF, IL-6, IL-1β and IL-17 in keratinocytes ([1]; 30 μM iE-DAP, 24 hrs)	effect on cytosolic accumulation / cellular uptake of click-iE-DAP (Slc46a2)	neutrophil / leukocyte recruitment to the skin in WT mice ([2]; intradermal 10 μl, LPS 10 μg/ml, 1 to 24 h)	neutrophil recruitment response in Slc46a2-deficient mice compared to WT ([2]; intradermal, 3 h, Tri-DAP 25 μM, C12-iE-DAP 20 μM, MDP 10 μM)	neutrophil recruitment response in Slc46a2−/− mice [3]	neutrophil recruitment response in Slc46a3−/− mice [3]	neutrophil recruitment response of WT skin (tape stripped mouse skin)	membrane permeabilization of primary human keratinocytes (PI uptake) [4]	CXCL8 in HSE dermal fibroblasts [5]	CXCL1 (KC) response of primary dermal fibroblasts [6]	inhibition of DAP-muropeptide triggered keratinocyte permeabilization (Sytox uptake) [7]	IL-1α release in iE-DAP treated WT keratinocytes ([1]; 250 μM MTX along with 30 μM iE DAP, 24 hours)	inhibition of DAP-muropeptide triggered IL-1α release ([1]; keratinocytes, iE-DAP, increasing concentrations of MTX, dose dependent)	effect on NP-mediated iE-DAP / dye delivery [8]	residual inflammation in Slc46a2−/− and Nod1−/− skin ([9]; Slc46a2−/− and Nod1−/− mice)	psoriasis like inflammation in WT skin ([9]; WT mice)
NC(CCCC(NC(=O)CC[C@@H](N)C(=O)O)C(=O)O)C(=O)O (stereo in doubt) [iE-DAP, γ-D-Glu-mDAP]	released IL-1α	not induced	interfered	recruited inflammatory cells	failed to respond; also recorded: significantly reduced	did not respond	responding normally	responded	failed to induce; also recorded: did not induce cell permeabilization	induction of CXCL8; also recorded: High expression of CXCL8	did not respond; also recorded: unresponsive	–	–	–	–	–	–
CN(Cc1cnc2nc(N)nc(N)c2n1)c1ccc(C(=O)N[C@@H](CCC(=O)O)C(=O)O)cc1 [MTX, methotrexate]	–	–	blocked; also recorded: interfered	–	–	–	–	–	–	–	–	inhibited	prevented	inhibited	failed to interfere; also recorded: did not affect	no observable effect; also recorded: minimalistic effect	reduced; also recorded: less inflamed
